Experimental data published in paper PMC2957683, “IKKβ inhibitor identification: a multi-filter driven novel scaffold” (2010).

Molecular target: T1, IKKβ (Homo sapiens, UniProt O14920)
T1 construct: gene IKBKB
T1 sequence (O14920 1-756): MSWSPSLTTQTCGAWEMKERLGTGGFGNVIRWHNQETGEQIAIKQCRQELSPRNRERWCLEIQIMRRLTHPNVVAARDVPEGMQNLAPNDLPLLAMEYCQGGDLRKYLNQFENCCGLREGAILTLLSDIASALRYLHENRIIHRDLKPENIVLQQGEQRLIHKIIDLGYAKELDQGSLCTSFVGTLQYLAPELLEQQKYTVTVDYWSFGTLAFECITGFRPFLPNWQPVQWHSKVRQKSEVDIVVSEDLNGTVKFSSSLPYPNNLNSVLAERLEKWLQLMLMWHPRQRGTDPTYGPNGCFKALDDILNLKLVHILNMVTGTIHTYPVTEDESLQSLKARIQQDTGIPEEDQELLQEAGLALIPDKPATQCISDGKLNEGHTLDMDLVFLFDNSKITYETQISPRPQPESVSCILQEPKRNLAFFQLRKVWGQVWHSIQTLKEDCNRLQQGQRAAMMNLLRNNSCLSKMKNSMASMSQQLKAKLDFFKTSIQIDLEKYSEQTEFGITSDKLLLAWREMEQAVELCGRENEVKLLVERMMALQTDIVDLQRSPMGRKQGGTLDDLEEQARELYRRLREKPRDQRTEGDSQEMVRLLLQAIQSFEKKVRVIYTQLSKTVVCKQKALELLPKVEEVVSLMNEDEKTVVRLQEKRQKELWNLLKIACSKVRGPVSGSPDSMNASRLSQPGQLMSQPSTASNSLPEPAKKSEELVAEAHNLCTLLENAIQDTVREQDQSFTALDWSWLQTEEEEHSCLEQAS
Assay: IMAP TR-FRET kinase assay with IKKβ enzyme (Millipore), IκBα-derived peptide substrate, […] ATP
Assay type: biochemical

| SMILES | IC50 [µM] |
| --- | --- |
| N#Cc1c(C2CCCNC2)cc(-c2ccccc2O)nc1N (centres unmarked) [Bayer-5a] | 0.17 |
| COc1ccc(-c2nc3c(c(SCC(=O)Nc4cccc(O)c4)n2)Cc2c(CO)cnc(C)c2O3)cc1 [VH01] | 20.3 |
